We go through 10 compounds from PubChem BioAssay AID762 (NMMLSC, 2007).

The assay deals with fMet-Leu-Phe receptor (Homo sapiens) (UniProt P21462). As to the kind of experiment: human FPR1 ligand displacement potency – cell-based, flow cytometry, IC50, selectivity assay for FPRL1 ligand SAR project, dose response (AID 762). To be noted: FPR-expressing cells, fluorescent ligand binding competition, IC50 of ligand binding inhibition. For orientation: A flow cytometer gives signals particle by particle.
Chain of fMet-Leu-Phe receptor (Homo sapiens) (P21462 whole entry, looked up): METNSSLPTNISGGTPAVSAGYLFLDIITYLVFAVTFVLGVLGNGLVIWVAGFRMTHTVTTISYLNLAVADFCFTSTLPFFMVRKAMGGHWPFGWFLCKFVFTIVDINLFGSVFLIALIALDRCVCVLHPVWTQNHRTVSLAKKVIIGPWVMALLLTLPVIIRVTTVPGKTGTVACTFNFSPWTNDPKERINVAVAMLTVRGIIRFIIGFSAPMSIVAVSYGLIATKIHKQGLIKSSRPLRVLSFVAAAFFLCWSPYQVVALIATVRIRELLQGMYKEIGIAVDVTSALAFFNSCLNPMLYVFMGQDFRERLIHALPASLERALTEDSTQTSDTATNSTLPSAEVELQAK

Where only a bound is given, the exact number is not on record here.

The IC50 is the concentration that gives 50% inhibition. With `COc1ccc(-c2cc(C(F)(F)F)nc(N3CCN(C(c4ccccc4)c4ccccc4)CC3)n2)cc1OC`, the IC50 is more than 41.6 µM.

For the compound `COc1ccc(CC(=O)Nc2cc(-c3cn4cccnc4n3)ccc2OC)cc1`, the half-maximal inhibitory concentration (IC50) was more than 57.2 µM.

In the case of `COc1ccc(-c2cc(C(F)(F)F)nc(N3CCN(c4ccccc4)CC3)n2)cc1OC`, the IC50 was more than 50 µM.

Compound `O=C(N1CCN(c2nc(-c3ccccc3)c3ccccc3n2)CC1)C(F)(F)F` showed an IC50 of more than 57.5 µM. With `COc1ccc(-c2cn3cccnc3n2)cc1NC(=O)C1CC1`, the IC50 was more than 72.1 µM. In the case of `CCC(=O)Nc1cc(-c2cn3cccnc3n2)ccc1OC` it was more than 75 µM. The value for `CCOC(=O)N1CCN(c2nc(-c3ccc(OC)c(OC)c3)cc(C(F)(F)F)n2)CC1` was more than 50.5 µM. Turning to `COc1ccc(-c2cc(C(F)(F)F)nc(N3CCN(Cc4ccccc4)CC3)n2)cc1OC`, the IC50 was more than 48.5 µM. Regarding `COc1ccc(-c2cn3cccnc3n2)cc1NC(=O)C(C)C`, the concentration for half-maximal inhibition (IC50) is more than 71.6 µM. The value for `COc1ccc(-c2cn3cccnc3n2)cc1NC(=O)C1CCCC1` was more than 66.1 µM.
